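A five-concentration, 48-hour dose response in 96-well plates underlies each endpoint, interpolated linearly between surrounding concentrations. Here, GI50 denotes the concentration required for 50% inhibition of growth. TGI denotes the concentration required for complete inhibition of growth.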 Bounds are passed on as bounds.

The results in this text go back to PubChem BioAssay (NCI).

Holding throughout (assay): inhibition of tumour cell growth, NCI panel, 48 h
Test [1] deals with A549 NSCLC.
Test [2] concerns HL-60(TB) leukemia.
Test [3] concerns HOP-62 NSCLC.
For test [4], the system named is KM12 colon.
For test [5], the system named is MALME-3M melanoma.
For test [6], the system named is OVCAR-3 ovarian.
For test [7], the system named is SK-MEL-28 melanoma.
Test [8] deals with SNB-19 CNS.
Test [9] deals with TK-10 renal.
Test [10] relates to UO-31 renal.

`O=C(Nc1cc(Cl)ccc1Cl)C(=O)C(c1cnc2ccccc2n1)[N+](=O)[O-]` (stereo not given): the TGI in [1], in test [2], in test [3], in [4], in test [5] and in [6] was more than 100 µM throughout. The TGI in test [7], in [8], in test [9] and in test [10] was more than 100 µM throughout.
Take `CCOC(=N)CC(=O)Nc1cccc(C)c1C`: the TGI in test [1], in test [2], in test [3], in [4], in test [5] and in test [6] was more than 100 µM in each case. The TGI in test [7], in test [8], in test [9] and in test [10] was more than 100 µM throughout.
Take `COc1ccc(C(=O)COc2cccc(/C=C3\Oc4ccc5ccccc5c4C3=O)c2)cc1`: the GI50 was 21.1 µM in [1]; 3.19 µM in test [2]; 14.9 µM in [3]; 3.39 µM in test [4]; 1.74 µM in test [5]; 1.78 µM in test [6]. Moreover, the GI50 in test [7] was 15.3 µM; in [8] it was 15.5 µM; in [9] it was 12 µM; in test [10], 6.42 µM. Further, the TGI in test [1] turned out to be 52.5 µM; in [2] it was 18.7 µM; in test [3] it was 28.1 µM; in test [4] it was 14.6 µM; in test [5] it was 5.51 µM; in [6], 3.54 µM. The TGI was found to be 28.7 µM in test [7], 29.4 µM in [8], 24.7 µM in [9] and 23.2 µM in test [10].
Turning to `Nc1ccn(C2(CO)C=C(CO)C(O)C2O)c(=O)n1` (stereo not given), the TGI in test [1], in test [2], in test [3], in test [4], in test [5] and in test [6] was more than 25.8 µM in each case. Besides, the TGI in test [7], in [8], in test [9] and in test [10] was more than 25.8 µM throughout.
Consider `NC(CS/C(Cl)=C/Cl)C(=O)O` (stereo not given), for which the GI50 is 1.69 µM in test [1]; 51.7 µM in test [2]; 4.64 µM in test [3]; 67.3 µM in test [4]; 62.4 µM in test [5]; 49.2 µM in test [6]. Moreover, the GI50 in test [7] is 43.6 µM; in [8], 30.7 µM; in [9], more than 100 µM; in [10] it was 54.8 µM. Besides, the TGI in test [1] is 6.98 µM; in test [2], more than 100 µM; in test [3], 29.3 µM; in test [4] it was more than 100 µM; in test [5] it was more than 100 µM; in [6] it was more than 100 µM. The TGI in test [7], in test [8], in test [9] and in test [10] was more than 100 µM each time.
Take `C=CCNC(=O)N(CCC)CCCCC(NC(C)=O)C(=O)NCc1ccccc1` (stereo not given): the TGI in [1], in test [2], in test [3], in test [4], in test [5] and in test [6] was more than 100 µM throughout. Besides, the TGI in test [7], in test [8], in test [9] and in [10] was more than 100 µM each time.
Take `CC(C)(C=O)CC(C#N)/C(=N\NC(N)=O)C(=O)Nc1ccccc1C(N)=O` (stereo not given): the TGI in [1], in test [2], in [3], in test [4], in [5] and in test [6] was more than 100 µM each time. The TGI in [7], in test [8], in test [9] and in [10] was more than 100 µM each time.
For `COc1ccc2[nH]c3c4c(ccc3c2c1)C(=O)C=CC4=O`, the TGI in test [1] is 62.8 µM; in [2], 1.11 µM; in test [3] it was more than 94.4 µM; in test [4], 49.1 µM; in test [5], 17.4 µM; in [6], 20.8 µM. Also, the TGI in test [7] was 20.2 µM; in test [8], more than 79.1 µM; in test [9] it was 28.1 µM; in test [10], 28.2 µM.
For the molecule `COc1ccc(C2c3cc(OC)c(OC)cc3C(Cc3ccc([N+](=O)[O-])cc3)C2c2ccc([N+](=O)[O-])cc2)cc1OC` (stereo not given), the TGI in test [1], in test [2], in [3], in test [4], in test [5] and in test [6] was more than 100 µM in each case. For the same molecule, the TGI in [7], in test [8], in [9] and in [10] was more than 100 µM throughout.
On to `CC12CCCCC1(C)C2Sc1ccccc1` (stereo not given), for which the TGI in test [1] was more than 100 µM; in test [2], 36.9 µM; in test [3] it was more than 100 µM; in [4], more than 100 µM; in test [5], more than 100 µM; in [6], more than 100 µM. In addition, the TGI in [7], in [8], in test [9] and in [10] was more than 100 µM each time.
`Cc1cc(N/N=C/c2nc(-c3ccc(Br)cc3)oc2C)c2cc(Br)ccc2n1`: the GI50 is 2.2 µM in test [1]; 2.24 µM in test [2]; 2.32 µM in test [3]; 2.25 µM in [4]; 2.1 µM in test [5]; 2.08 µM in test [6]. Besides, the GI50 in test [7] was 2.39 µM; in [8], 3.87 µM; in [9], 1.97 µM; in test [10], 13.9 µM. Also, the TGI in test [1] was 5.2 µM; in test [2] it was 6.28 µM; in test [3], 5.84 µM; in test [4], 5.71 µM; in test [5], 4.48 µM; in test [6], 4.25 µM. The TGI in [7] came to 6.26 µM; in test [8], 23.4 µM; in test [9], 3.93 µM; in test [10], 26.8 µM.
